Literature values as cited in US6645974B2, “Androgen receptor modulators and methods for use thereof” (Merck & Co., Inc., priority 2001, dated 2003).
Counter-ions that a name gives are not always drawn.

How the values were obtained:
[1] = postmenopausal osteoporotic women, median of 22 months of treatment
[2] = after 7 years of treatment

| Molecule | reduction in nonvertebral fractures [1] [%] | reduction in spine fractures [1] [%] | increase in spinal BMD [2] [%] |
| --- | --- | --- | --- |
| hPTH(1-34): human parathyroid hormone 1-34 fragment (SVSEIQLMHNLGKHLNSMERVEWLRKKLQDVHNF; Parathyroid hormone; UniProt P01270 32-65, looked up, fragment) | 54 | ≥ 65 | – |
| NCCCC(O)(P(=O)(O)O)P(=O)(O)O [alendronate, 4-amino-1-hydroxybutylidene-1,1-bisphosphonic acid monosodium salt, trihydrate] | – | – | ≤ 11 |
